Measurements as given in patent US20240308976A1, “COMPOUNDS THAT MEDIATE PROTEIN DEGRADATION AND USES THEREOF” (Monte Rosa Therapeutics, Inc., priority 2021, published 2024).

What was measured:
GSPT1 = biological target: T1, GSPT1 (Homo sapiens, UniProt P15170+Q96SW2); experiment: Immunofluorescence assay for activity to degrade GSPT1 in CAL-51 cells; assay type: cell-based; details: 6 h treatment, read-out: IF Class (GSPT1 degradation, DC50)
T1 construct: CAL-51 cells were purchased from DSMZ (cat. Number ACC302); host or cells: CAL-51
How it was run: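 CAL-51 cells treated 6 h with compound (30 μM to 0.1 nM), fixed, immunostained for GSPT1 with DAPI and phalloidin counterstains, imaged by high-content microscopy. Mean per-cell GSPT1 intensity normalized to controls; DC50 by non-linear regression.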

CRBN-DDB1 = CRBN-DDB1 (Homo sapiens, UniProt Q96SW2); experiment: Compound binding to CRBN by HTRF assay; details: CRBN-DDB1 2.5 nM, Cy5-Thalidomide 100 nM, 30 min at ambient temperature; read-out: HTRF Class (Cereblon binding, HTRF IC50)
How it was run: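 Cy5-thalidomide (100 nM) displacement from His-tagged CRBN-DDB1 (2.5 nM) read by terbium-cryptate HTRF (665/620 nm), in 20 mM HEPES, 20 mM NaCl, 0.2 mM TCEP, 0.2 mM EDTA, 0.005% Tween20. Compounds tested as 10-point 1:3 series, 30 min at ambient temperature. Signal normalised to DMSO and lenalidomide controls; IC50 fitted, Ki by Cheng-Prusoff.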

Sequence of CRBN-DDB1 (Q96SW2 whole entry): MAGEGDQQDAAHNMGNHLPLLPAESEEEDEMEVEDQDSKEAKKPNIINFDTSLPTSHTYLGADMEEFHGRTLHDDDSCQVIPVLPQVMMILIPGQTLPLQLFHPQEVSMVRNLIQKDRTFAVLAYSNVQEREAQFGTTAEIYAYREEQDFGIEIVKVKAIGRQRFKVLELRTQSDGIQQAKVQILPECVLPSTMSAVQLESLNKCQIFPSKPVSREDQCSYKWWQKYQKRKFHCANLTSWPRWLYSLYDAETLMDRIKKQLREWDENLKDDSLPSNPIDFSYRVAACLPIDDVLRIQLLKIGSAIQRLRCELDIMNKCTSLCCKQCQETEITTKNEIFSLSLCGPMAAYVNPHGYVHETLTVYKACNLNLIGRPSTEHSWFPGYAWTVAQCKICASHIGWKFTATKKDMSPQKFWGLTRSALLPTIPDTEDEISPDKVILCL
Sequence of CRBN-DDB1 (Q16531 whole entry partner): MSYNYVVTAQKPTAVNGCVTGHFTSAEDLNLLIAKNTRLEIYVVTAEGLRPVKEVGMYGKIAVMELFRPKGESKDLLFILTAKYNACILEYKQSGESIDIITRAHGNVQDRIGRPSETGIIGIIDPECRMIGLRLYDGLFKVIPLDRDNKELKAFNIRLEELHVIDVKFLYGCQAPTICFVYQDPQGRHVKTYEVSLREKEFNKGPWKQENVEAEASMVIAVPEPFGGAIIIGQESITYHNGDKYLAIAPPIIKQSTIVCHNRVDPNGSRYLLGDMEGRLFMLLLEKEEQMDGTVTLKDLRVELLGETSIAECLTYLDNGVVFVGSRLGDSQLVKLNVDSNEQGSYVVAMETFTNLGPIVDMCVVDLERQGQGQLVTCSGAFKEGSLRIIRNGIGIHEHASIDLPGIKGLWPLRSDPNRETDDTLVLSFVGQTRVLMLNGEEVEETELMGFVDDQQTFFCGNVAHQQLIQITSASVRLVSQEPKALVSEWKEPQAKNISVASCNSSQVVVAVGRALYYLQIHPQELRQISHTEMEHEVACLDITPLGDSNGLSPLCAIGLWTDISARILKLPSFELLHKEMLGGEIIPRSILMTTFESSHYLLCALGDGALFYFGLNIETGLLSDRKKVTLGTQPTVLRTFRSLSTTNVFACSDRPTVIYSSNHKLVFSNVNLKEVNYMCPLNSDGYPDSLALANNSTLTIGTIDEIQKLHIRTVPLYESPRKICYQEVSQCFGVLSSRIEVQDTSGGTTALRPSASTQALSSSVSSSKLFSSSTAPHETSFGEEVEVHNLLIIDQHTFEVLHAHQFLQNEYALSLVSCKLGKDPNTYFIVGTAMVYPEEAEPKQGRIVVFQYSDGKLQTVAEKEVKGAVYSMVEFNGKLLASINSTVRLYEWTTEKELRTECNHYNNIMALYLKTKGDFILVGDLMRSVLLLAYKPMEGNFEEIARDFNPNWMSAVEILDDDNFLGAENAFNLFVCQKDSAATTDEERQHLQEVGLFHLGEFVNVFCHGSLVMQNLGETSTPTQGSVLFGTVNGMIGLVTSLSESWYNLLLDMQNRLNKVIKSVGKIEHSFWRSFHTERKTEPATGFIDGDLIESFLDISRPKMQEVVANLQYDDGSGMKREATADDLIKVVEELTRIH
T1 sequence (P15170 whole entry): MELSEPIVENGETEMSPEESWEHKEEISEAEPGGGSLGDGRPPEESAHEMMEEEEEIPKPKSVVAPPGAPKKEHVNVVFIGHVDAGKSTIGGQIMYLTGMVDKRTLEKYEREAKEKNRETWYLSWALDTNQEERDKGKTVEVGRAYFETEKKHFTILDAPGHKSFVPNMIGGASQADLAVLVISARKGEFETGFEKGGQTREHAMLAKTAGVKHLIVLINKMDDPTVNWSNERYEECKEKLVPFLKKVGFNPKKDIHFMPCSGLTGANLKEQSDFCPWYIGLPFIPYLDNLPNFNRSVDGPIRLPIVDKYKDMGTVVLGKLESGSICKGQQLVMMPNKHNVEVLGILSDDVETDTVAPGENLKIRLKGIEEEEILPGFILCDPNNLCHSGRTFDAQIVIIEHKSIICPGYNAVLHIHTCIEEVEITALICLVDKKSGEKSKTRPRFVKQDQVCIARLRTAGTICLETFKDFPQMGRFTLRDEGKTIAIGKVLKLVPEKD
T1 sequence (Q96SW2 whole entry): as the sequence (Q96SW2 whole entry) above
T1 sequence (Q16531 2-1140 partner limits assumed): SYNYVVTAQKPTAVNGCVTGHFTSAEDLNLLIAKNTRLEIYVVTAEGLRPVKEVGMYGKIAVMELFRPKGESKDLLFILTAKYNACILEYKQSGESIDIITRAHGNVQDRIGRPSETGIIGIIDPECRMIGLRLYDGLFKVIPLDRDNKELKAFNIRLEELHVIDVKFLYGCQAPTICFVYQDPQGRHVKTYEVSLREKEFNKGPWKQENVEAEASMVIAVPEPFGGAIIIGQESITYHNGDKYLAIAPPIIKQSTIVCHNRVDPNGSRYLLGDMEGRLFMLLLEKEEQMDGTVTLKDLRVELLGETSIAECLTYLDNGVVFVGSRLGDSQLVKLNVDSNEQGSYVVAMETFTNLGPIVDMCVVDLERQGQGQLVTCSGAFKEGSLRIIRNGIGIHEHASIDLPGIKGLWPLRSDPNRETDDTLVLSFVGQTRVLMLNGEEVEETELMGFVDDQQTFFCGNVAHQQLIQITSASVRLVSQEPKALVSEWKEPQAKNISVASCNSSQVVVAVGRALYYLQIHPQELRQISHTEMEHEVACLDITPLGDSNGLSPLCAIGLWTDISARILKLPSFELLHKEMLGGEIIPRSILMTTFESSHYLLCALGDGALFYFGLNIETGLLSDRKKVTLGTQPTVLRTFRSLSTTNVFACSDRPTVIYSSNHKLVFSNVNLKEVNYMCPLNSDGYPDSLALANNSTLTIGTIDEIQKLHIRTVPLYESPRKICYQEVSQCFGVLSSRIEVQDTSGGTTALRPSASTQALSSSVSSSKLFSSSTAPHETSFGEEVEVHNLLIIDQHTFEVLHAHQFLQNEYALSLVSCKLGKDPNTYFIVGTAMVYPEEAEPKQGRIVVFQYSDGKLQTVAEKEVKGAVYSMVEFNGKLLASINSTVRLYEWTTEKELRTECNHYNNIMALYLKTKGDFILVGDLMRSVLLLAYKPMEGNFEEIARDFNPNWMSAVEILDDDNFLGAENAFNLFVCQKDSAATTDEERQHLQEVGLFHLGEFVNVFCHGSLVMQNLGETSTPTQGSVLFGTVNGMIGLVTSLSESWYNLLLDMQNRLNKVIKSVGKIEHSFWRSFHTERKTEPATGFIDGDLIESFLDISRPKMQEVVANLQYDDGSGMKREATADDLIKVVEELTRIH

| Compound | DC50 (GSPT1) [µM] | IC50 (CRBN-DDB1) [µM] |
| --- | --- | --- |
| O=C1CCC(c2c(F)cc(N3CC(NC(=O)Nc4cccc(OC(F)F)c4)C3)cc2F)C(=O)N1 (stereo not shown) [Compound 15, 1-(3-(difluoromethoxy)phenyl)-3-(1-(4-(2,6-dioxopiperidin-3-yl)-3,5-difluorophenyl)azetidin-3-yl)urea] | 0.03 to 0.3 | ≤ 0.1 |
| O=C1CCC(c2c(F)cc(N3CC(NC(=O)Nc4cc(Cl)cc(OC(F)F)c4)C3)cc2F)C(=O)N1 (stereo not shown) [Compound 28, 1-(3-chloro-5-(difluoromethoxy)phenyl)-3-(1-(4-(2,6-dioxopiperidin-3-yl)-3,5-difluorophenyl)azetidin-3-yl)urea] | 0.03 to 0.3 | 0.1 to 1 |
| Cc1cc(NC(=O)OC2CN(c3cc(F)c(C4CCC(=O)NC4=O)c(F)c3)C2)c(F)cc1Cl (stereo not shown) [Compound 39, 1-(4-(2,6-dioxopiperidin-3-yl)-3,5-difluorophenyl)azetidin-3-yl(4-chloro-2-fluoro-5-methylphenyl)carbamate] | ≤ 0.03 | 0.1 to 1 |
| O=C1CCC(c2ccc(N3CC(NC(=O)Nc4cccc(OC(F)(F)F)c4)C3)cc2Cl)C(=O)N1 (stereo not shown) [Compound 41, 1-(1-(3-chloro-4-(2,6-dioxopiperidin-3-yl)phenyl)azetidin-3-yl)-3-(3-(trifluoromethoxy)phenyl)urea] | > 0.3 | 0.1 to 1 |
| O=C1CCC(c2c(F)cc(N3CC(OC(=O)NC45CC(N6CCCCC6)(C4)C5)C3)cc2F)C(=O)N1 (stereo not shown) [Compound 65, 1-(4-(2,6-dioxopiperidin-3-yl)-3,5-difluorophenyl)azetidin-3-yl (3-(piperidin-1-yl)bicyclo[1.1.1]pentan-1-yl) carbamate] | ≤ 0.03 | ≤ 0.1 |
| Cc1ccc(NC(=O)NC2CN(c3ccc(C4CCC(=O)NC4=O)c(F)c3)C2)cc1Cl (stereo not shown) [Compound 7, 1-(3-chloro-4-methylphenyl)-3-(1-(4-(2,6-dioxopiperidin-3-yl)-3-fluorophenyl)azetidin-3-yl)urea] | 0.03 to 0.3 | 0.1 to 1 |
| O=C1CCC(c2c(F)cc(N3CC(OC(=O)Nc4cccc(OC(F)(F)F)c4)C3)cc2F)C(=O)N1 (stereo not shown) [Compound 3, 1-(4-(2,6-dioxopiperidin-3-yl)-3,5-difluorophenyl)azetidin-3-yl(3-(trifluoromethoxy)phenyl) carbamate] | ≤ 0.03 | 0.1 to 1 |
| Cc1cc(NC(=O)OC2CN(c3cc(F)c(C4CCC(=O)NC4=O)c(F)c3)C2)cc(CN2CC3CC2CO3)c1C (stereo not shown) [Compound 64, 1-(4-(2,6-dioxopiperidin-3-yl)-3,5-difluorophenyl)azetidin-3-yl(3-(2-oxa-5-azabicyclo[2.2.1]heptan-5-ylmethyl)-4,5-dimethylphenyl) carbamate] | ≤ 0.03 | ≤ 0.1 |
| O=C1CCC(c2c(F)cc(N3CC(NC(=O)Nc4cc(F)cc(OC(F)(F)F)c4)C3)cc2F)C(=O)N1 (stereo not shown) [Compound 50, 1-(1-(4-(2,6-dioxopiperidin-3-yl)-3,5-difluorophenyl)azetidin-3-yl)-3-(3-fluoro-5-(trifluoromethoxy)phenyl)urea] | 0.03 to 0.3 | 0.1 to 1 |
| O=C1CCC(c2c(F)cc(N3CC(NC(=O)Nc4cccc(OC5CC5)c4)C3)cc2F)C(=O)N1 (stereo not shown) [Compound 17, 1-(3-cyclopropoxyphenyl)-3-(1-(4-(2,6-dioxopiperidin-3-yl)-3,5-difluorophenyl)azetidin-3-yl)urea] | 0.03 to 0.3 | 0.1 to 1 |
| O=C1CCC(c2c(F)cc(N3CC(OC(=O)Nc4cccc(OC(F)F)c4)C3)cc2F)C(=O)N1 (stereo not shown) [Compound 14, 1-(4-(2,6-dioxopiperidin-3-yl)-3,5-difluorophenyl)azetidin-3-yl (3-(difluoromethoxy)phenyl)carbamate] | ≤ 0.03 | 0.1 to 1 |

More lines, now with the values ahead:

| DC50 (GSPT1) [µM] | IC50 (CRBN-DDB1) [µM] | Compound |
| --- | --- | --- |
| > 0.3 | 0.1 to 1 | O=C1CCC(c2c(F)cc(N3CC(OC(=O)NC45CC(N6CCOCC6)(C4)C5)C3)cc2F)C(=O)N1 (stereo not shown) [Compound 71, 1-(4-(2,6-dioxopiperidin-3-yl)-3,5-difluorophenyl)azetidin-3-yl(3-morpholinobicyclo [1.1.1]pentan-1-yl) carbamate] |
| > 0.3 | 0.1 to 1 | O=C1CCC(c2ccc(N3CC(NC(=O)Nc4cc(OC(F)(F)F)ccn4)C3)cc2)C(=O)N1 (stereo not shown) [Compound 74, 1-(1-(4-(2,6-dioxopiperidin-3-yl)phenyl)azetidin-3-yl)-3-(4-(trifluoromethoxy)pyridin-2-yl)urea] |
| ≤ 0.03 | ≤ 0.1 | C[C@H]1C[C@@H](NC(=O)OC2CN(c3cc(F)c(C4CCC(=O)NC4=O)c(F)c3)C2)C1 (stereo partly drawn) [Compound 80, 1-(4-(2,6-dioxopiperidin-3-yl)-3,5-difluorophenyl)azetidin-3-yl ((1S,3S)-3-methylcyclobutyl)carbamate] |
| 0.03 to 0.3 | ≤ 0.1 | O=C1CCC(c2c(F)cc(N3CC(OC(=O)NC45CC(CF)(C4)C5)C3)cc2F)C(=O)N1 (stereo not shown) [Compound 68, 1-(4-(2,6-dioxopiperidin-3-yl)-3,5-difluorophenyl)azetidin-3-yl (3-(fluoromethyl)bicyclo[1.1.1]pentan-1-yl) carbamate] |
| > 0.3 | 0.1 to 1 | O=C1CCC(c2c(F)cc(N3CC(OC(=O)NC4CCC4)C3)cc2F)C(=O)N1 (stereo not shown) [Compound 90, 1-(4-(2,6-dioxopiperidin-3-yl)-3,5-difluorophenyl) azetidin-3-yl cyclobutylcarbamate] |
| ≤ 0.03 | 0.1 to 1 | COc1ccc(C(F)(F)C23CC(NC(=O)OC4CN(c5cc(F)c(C6CCC(=O)NC6=O)c(F)c5)C4)(C2)C3)cc1 (stereo not shown) [Compound 69, 1-(4-(2,6-dioxopiperidin-3-yl)-3,5-difluorophenyl)azetidin-3-yl (3-(difluoro(4-methoxyphenyl)methyl)bicyclo[1.1.1]pentan-1-yl)carbamate] |
| ≤ 0.03 | 0.1 to 1 | CC(C)CCNC(=O)OC1CN(c2cc(F)c(C3CCC(=O)NC3=O)c(F)c2)C1 (stereo not shown) [Compound 125, 1-(4-(2,6-dioxopiperidin-3-yl)-3,5-difluorophenyl)azetidin-3-yl isopentylcarbamate] |
| > 0.3 | ≤ 0.1 | CC(C)(C)N1CC(NC(=O)OC2CN(c3cc(F)c(C4CCC(=O)NC4=O)c(F)c3)C2)C1 (stereo not shown) [Compound 126, 1-(4-(2,6-dioxopiperidin-3-yl)-3,5-difluorophenyl)azetidin-3-yl(1-(tert-butyl)azetidin-3-yl)carbamate] |
| > 0.3 | 0.1 to 1 | O=C1CCC(c2c(F)cc(N3CC(OC(=O)NC4CCOCC4)C3)cc2F)C(=O)N1 (stereo not shown) [Compound 94, 1-(4-(2,6-dioxopiperidin-3-yl)-3,5-difluorophenyl)azetidin-3-yl (tetrahydro-2H-pyran-4-yl)carbamate] |
| ≤ 0.03 | ≤ 0.1 | O=C1CCC(c2c(F)cc(N3CC(OC(=O)NC4Cc5ccccc5C4)C3)cc2F)C(=O)N1 (stereo not shown) [Compound 136, 1-(4-(2,6-dioxopiperidin-3-yl)-3,5-difluorophenyl)azetidin-3-yl (2,3-dihydro-1H-inden-2-yl)carbamate] |
| > 0.3 | 0.1 to 1 | O=C1CCC(c2c(F)cc(N3CC(OC(=O)N[C@H]4CCOC4)C3)cc2F)C(=O)N1 (stereo partly drawn) [Compound 81, 1-(4-(2,6-dioxopiperidin-3-yl)-3,5-difluorophenyl)azetidin-3-yl ((S)-tetrahydrofuran-3-yl)carbamate] |
| 0.03 to 0.3 | > 1 | COc1cc(C)c(Cl)cc1NC(=O)NC1CN(c2ccc(C3CCC(=O)NC3=O)cc2)C1 (stereo not shown) [Compound 72, 1-(5-chloro-2-methoxy-4-methylphenyl)-3-(1-(4-(2,6-dioxopiperidin-3-yl)phenyl)azetidin-3-yl)urea] |
